Experiments:
FSHR = target: T1, FSHR (Homo sapiens, UniProt P23945); assay: EC50 of cyclic AMP production in CHO FSHR cells + EC20 FSH (Assay A); type: cell-based; details: cyclic AMP production in CHO FSHR cells + EC20 FSH (0.265 pM), HTRF
T1 construct: expressed in transfected cells; host or cells: CHO (Cho-FSHR-LUC-1-1-43)
T1 sequence (P23945 18-695): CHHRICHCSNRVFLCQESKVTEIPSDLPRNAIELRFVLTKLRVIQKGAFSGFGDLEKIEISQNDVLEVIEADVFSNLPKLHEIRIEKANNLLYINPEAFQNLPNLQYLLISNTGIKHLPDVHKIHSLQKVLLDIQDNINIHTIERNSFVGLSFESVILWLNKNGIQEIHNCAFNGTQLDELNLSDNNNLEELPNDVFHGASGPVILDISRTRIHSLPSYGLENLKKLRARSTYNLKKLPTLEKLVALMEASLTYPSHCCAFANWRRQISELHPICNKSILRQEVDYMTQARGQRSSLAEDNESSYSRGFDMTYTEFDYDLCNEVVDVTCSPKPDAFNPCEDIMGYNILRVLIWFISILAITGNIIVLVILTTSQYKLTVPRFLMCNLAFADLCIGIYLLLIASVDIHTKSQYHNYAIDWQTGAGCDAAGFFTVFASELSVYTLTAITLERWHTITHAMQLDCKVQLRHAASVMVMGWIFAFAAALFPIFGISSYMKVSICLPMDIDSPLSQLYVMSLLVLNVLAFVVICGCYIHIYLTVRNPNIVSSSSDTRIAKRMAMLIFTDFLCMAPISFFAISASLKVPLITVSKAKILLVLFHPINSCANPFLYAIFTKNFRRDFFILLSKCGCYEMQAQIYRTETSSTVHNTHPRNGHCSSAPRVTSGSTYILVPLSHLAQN
Summary of the method: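 cAMP was detected by HTRF as the 665/620 nm ratio. The CHO-FSHR cells had first been exposed for 1 h at 37° C to test compound together with 0.265 pM FSH (EC20) and 200 μM IBMX. Responses are given as percent of the FSH standard maximum.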

[1] = target: T2, follicle-stimulating hormone (FSH) receptor (Rattus norvegicus, UniProt P20395); assay: Rat granulosa EC50 FSH (Assay B); type: cell-based
T2 construct: endogenous in cells; host or cells: rat granulosa cells
T2 sequence (P20395 18-692): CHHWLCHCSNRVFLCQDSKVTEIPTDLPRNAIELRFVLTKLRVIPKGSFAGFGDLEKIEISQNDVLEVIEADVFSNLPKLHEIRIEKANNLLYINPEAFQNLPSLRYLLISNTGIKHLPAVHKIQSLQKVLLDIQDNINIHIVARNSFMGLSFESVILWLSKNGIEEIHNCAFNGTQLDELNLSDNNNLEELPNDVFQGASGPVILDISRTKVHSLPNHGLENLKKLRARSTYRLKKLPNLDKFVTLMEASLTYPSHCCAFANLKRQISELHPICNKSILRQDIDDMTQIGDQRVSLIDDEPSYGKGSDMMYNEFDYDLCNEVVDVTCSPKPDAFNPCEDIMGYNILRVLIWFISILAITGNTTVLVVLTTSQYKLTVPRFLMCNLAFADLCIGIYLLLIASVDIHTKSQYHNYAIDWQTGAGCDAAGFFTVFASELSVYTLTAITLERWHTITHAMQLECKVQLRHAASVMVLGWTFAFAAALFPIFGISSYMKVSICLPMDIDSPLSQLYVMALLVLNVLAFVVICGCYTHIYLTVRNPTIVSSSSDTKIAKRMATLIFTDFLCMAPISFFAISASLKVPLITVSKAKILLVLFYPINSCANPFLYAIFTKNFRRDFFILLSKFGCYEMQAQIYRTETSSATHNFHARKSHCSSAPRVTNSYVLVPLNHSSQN
Protocol: Example 25. Rat granulosa EC50 FSH (Assay B)
The assay was performed pursuant to the teaching of Yanofsky et al. (2006) Allosteric activation of the follicle-stimulating hormone (FSH) receptor by selective, nonpeptide agonists (JBC 281(19): 13226-13233, which is incorporated by reference in the disclosure of the invention).

EC50 (FSHR) [nM]	EC50 [1] [nM]	Structure (SMILES)
10 to 100	> 500	COc1cc2c(cc1-c1cnn(CC(O)CO)c1)-c1c(c(C(=O)N(C)C(C)(C)C)nn1-c1cc(Cl)cc(Cl)c1)CO2 (stereo not shown) [Compound 190, N-tert-butyl-1-(3,5-dichlorophenyl)-8-(1-(2,3-dihydroxypropyl)-1H-pyrazol-4-yl)-7-methoxy-N-methyl-1,4-dihydrochromeno[4,3-c]pyrazole-3-carboxamide]
< 10	10 to 100	COc1cc2c(cc1-c1cccnc1F)-c1c(c(C(=O)N(CCO)C(C)(C)C)nn1-c1cc(Cl)cc(Cl)c1)CO2 [Compound 123, N-tert-butyl-1-(3,5-dichlorophenyl)-8-(2-fluoropyridin-3-yl)-N-(2-hydroxyethyl)-7-methoxy-1,4-dihydrochromeno[4,3-c]pyrazole-3-carboxamide]
< 10	10 to 100	COc1cc2c(cc1-c1cncc(CO)c1)-c1c(c(C(=O)N(C)C(C)(C)C#N)nn1-c1cc(Cl)cc(Cl)c1)CO2 [Compound 108, N-(2-cyanopropan-2-yl)-1-(3,5-dichlorophenyl)-8-(5-(hydroxymethyl)pyridin-3-yl)-7-methoxy-N-methyl-1,4-dihydrochromeno[4,3-c]pyrazole-3-carboxamide]
10 to 100	101 to 500	COc1cc2c(cc1-c1cc(=O)[nH][nH]1)-c1c(c(C(=O)N(C)C(C)(C)C)nn1-c1ccsc1)CO2 [Compound 185, N-tert-butyl-7-methoxy-N-methyl-8-(5-oxo-2,5-dihydro-1H-pyrazol-3-yl)-1-(thiophen-3-yl)-1,4-dihydrochromeno[4,3-c]pyrazole-3-carboxamide]
< 10	10 to 100	COc1cc2c(cc1C1C=NN=C1C)-c1c(c(C(=O)N(C)C(C)(C)C)nn1-c1cc(Cl)cc(Cl)c1)CO2 (stereo not shown) [Compound 141]
10 to 100	101 to 500	COc1cc2c(cc1-c1ccn(C)n1)-c1c(c(C(=O)N3C[C@H](O)[C@H](O)CC3(C)C)nn1-c1ccsc1)CO2 [Compound 130, ((4R,5S)-4,5-dihydroxy-2,2-dimethylpiperidin-1-yl)(7-methoxy-8-(1-methyl-1H-pyrazol-3-yl)-1-(thiophen-3-yl)-1,4-dihydrochromeno[4,3-c]pyrazol-3-yl)methanone]
< 10	10 to 100	COc1cc2c(cc1-c1cc(C(N)=O)ccc1F)-c1c(c(C(=O)N(C)C(C)(C)C)nn1-c1cc(Cl)cc(Cl)c1)CO2 [Compound 93, N-tert-butyl-8-(5-carbamoyl-2-fluorophenyl)-1-(3,5-dichlorophenyl)-7-methoxy-N-methyl-1,4-dihydrochromeno[4,3-c]pyrazole-3-carboxamide]
< 10	101 to 500	COc1cc(F)cc(-n2nc(C(=O)N(C)C(C)(C)C)c3c2-c2cc(-c4cncc(C(N)=O)c4)c(OC)cc2OC3)c1 [Compound 166]
< 10	< 10	COc1cc2c(cc1-c1cc(F)cc(C(N)=O)c1)-c1c(c(C(=O)N(C)C(C)(C)C)nn1-c1cc(Cl)cc(Cl)c1)CO2 [Compound 97, N-tert-butyl-8-(3-carbamoyl-5-fluorophenyl)-1-(3,5-dichlorophenyl)-7-methoxy-N-methyl-1,4-dihydrochromeno[4,3-c]pyrazole-3-carboxamide]
< 10	10 to 100	CNC(=O)c1cc(-c2cc3c(cc2OC)OCc2c(C(=O)N(C)C(C)(C)C)nn(-c4cc(F)cc(F)c4)c2-3)cnc1N [Compound 100, 8-(6-amino-5-(methylcarbamoyl)pyridin-3-yl)-N-tert-butyl-1-(3,5-difluorophenyl)-7-methoxy-N-methyl-1,4-dihydrochromeno[4,3-c]pyrazole-3-carboxamide]
< 10	101 to 500	COc1cc2c(cc1-c1cncc(C(N)=O)c1)-c1c(c(C(=O)N3CC[S+]([O-])CC3(C)C)nn1-c1cc(F)cc(F)c1)CO2 (stereo not shown) [Compound 163]

The remaining lines, values behind:

Structure (SMILES)	EC50 (FSHR) [nM]	EC50 [1] [nM]
COc1cc2c(cc1-c1cccnc1F)-c1c(c(C(=O)N3CCOCC3(C)C)nn1-c1ccsc1)CO2 [Compound 61, (3,3-dimethylmorpholino)(8-(2-fluoropyridin-3-yl)-7-methoxy-1-(thiophen-3-yl)-1,4-dihydrochromeno[4,3-c]pyrazol-3-yl)methanone]	< 10	10 to 100
COc1cc2c(cc1-c1cccnc1Cl)-c1c(c(C(=O)N(C)C(C)(C)C)nn1-c1ccsc1)CO2 [Compound 60, N-tert-butyl-8-(2-chloropyridin-3-yl)-7-methoxy-N-methyl-1-(thiophen-3-yl)-1,4-dihydrochromeno[4,3-c]pyrazole-3-carboxamide]	< 10	101 to 500
COc1cc2c(cc1-c1cccnc1F)-c1c(c(C(=O)N(C)C(C)(C)C)nn1-c1ccsc1)CO2 [Compound 55, N-tert-butyl-8-(2-fluoropyridin-3-yl)-7-methoxy-N-methyl-1-(thiophen-3-yl)-1,4-dihydrochromeno[4,3-c]pyrazole-3-carboxamide]	< 10	10 to 100
COc1cc(F)cc(-n2nc(C(=O)N3CCOCC3(C)C)c3c2-c2cc(-c4cnn(CCO)c4)c(OC)cc2OC3)c1 [Compound 74, (3,3-dimethylmorpholino)(1-(3-fluoro-5-methoxyphenyl)-8-(1-(2-hydroxyethyl)-1H-pyrazol-4-yl)-7-methoxy-1,4-dihydrochromeno[4,3-c]pyrazol-3-yl)methanone]	< 10	10 to 100
COc1cc2c(cc1-c1cc(C(=O)O)ccc1F)-c1c(c(C(=O)N(C)C(C)(C)C)nn1-c1cc(Cl)cc(Cl)c1)CO2 [Compound 82, 3-(3-(tert-butyl(methyl)carbamoyl)-1-(3,5-dichlorophenyl)-7-methoxy-1,4-dihydrochromeno[4,3-c]pyrazol-8-yl)-4-fluorobenzoic acid]	< 10	> 500
COc1cc2c(cc1-c1ccccc1F)-c1c(c(C(=O)N(C)C(C)(C)C)nn1-c1ccsc1)CO2 [Compound 63, N-tert-butyl-8-(2-fluorophenyl)-7-methoxy-N-methyl-1-(thiophen-3-yl)-1,4-dihydrochromeno[4,3-c]pyrazole-3-carboxamide]	10 to 100	101 to 500
COc1cc2c(cc1-c1cnn(CC(=O)O)c1)-c1c(c(C(=O)N(C)C(C)(C)C)nn1-c1cc(Cl)cc(Cl)c1)CO2 [Compound 81, 2-(4-(3-(tert-butyl(methyl)carbamoyl)-1-(3,5-dichlorophenyl)-7-methoxy-1,4-dihydrochromeno[4,3-c]pyrazol-8-yl)-1H-pyrazol-1-yl)acetic acid]	10 to 100	101 to 500
COc1cc2c(cc1-c1cnn(CC(N)=O)c1)-c1c(c(C(=O)N(C)C(C)(C)C)nn1-c1cc(Cl)cc(Cl)c1)CO2 [Compound 67, 8-(1-(2-amino-2-oxoethyl)-1H-pyrazol-4-yl)-N-tert-butyl-1-(3,5-dichlorophenyl)-7-methoxy-N-methyl-1,4-dihydrochromeno[4,3-c]pyrazole-3-carboxamide]	< 10	101 to 500
COc1cc2c(cc1-c1ccn(C)n1)-c1c(c(C(=O)N3CCC(O)CC3(C)C)nn1-c1ccsc1)CO2 (stereo not shown) [Compound 57, (4-hydroxy-2,2-dimethylpiperidin-1-yl)(7-methoxy-8-(1-methyl-1H-pyrazol-3-yl)-1-(thiophen-3-yl)-1,4-dihydrochromeno[4,3-c]pyrazol-3-yl)methanone]	10 to 100	101 to 500
